Among the data in patent publication US8269000B2, “Substituted pyrimidine and triazine compounds” (Gruenenthal GmbH, priority 2008, dated 2012) are inhibition values, retold here.

The test concerns the target T1, rat B1R (Rattus norvegicus, UniProt P97583).
T1 construct: expressed in transfected cells; host or cells: CHO K1 cells
T1 sequence (P97583 1-337): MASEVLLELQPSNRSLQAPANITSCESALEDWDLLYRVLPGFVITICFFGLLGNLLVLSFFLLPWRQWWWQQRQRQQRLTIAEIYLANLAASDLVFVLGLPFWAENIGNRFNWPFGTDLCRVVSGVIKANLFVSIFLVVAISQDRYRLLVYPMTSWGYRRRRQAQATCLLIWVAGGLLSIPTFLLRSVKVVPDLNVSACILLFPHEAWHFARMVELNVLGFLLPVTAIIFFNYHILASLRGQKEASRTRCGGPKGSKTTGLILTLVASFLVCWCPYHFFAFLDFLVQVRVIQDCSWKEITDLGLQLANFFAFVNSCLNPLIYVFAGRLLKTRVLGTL
Kind of test: FLIPR Ca2+ functional study on bradykinin receptor 1 (rB1R CHO K1 cells). Conditions: CHO-K1, % inhibition rat B1R at 10 μM, read-out: % inh. (rat B1R) 10 μM. It is filed as cell-based. Here is the method:
The agonistic or antagonistic activity of substances can be quantified on the bradykinin receptor 1 (B1R) of the species human and rat using ectopically expressing cell lines (CHO K1 cells) and with the aid of a Ca^2+-sensitive dye (Fluo-4) using a fluorescent imaging plate reader (FLIPR). The indication in % activation is based on the Ca^2+ signal after addition of Lys-Des-Arg^9-bradykinin (0.5 nM) or Des-Arg^9-bradykinin (100 nM). Antagonists lead to suppression of the Ca^2+ influx after the addition of the agonist. % Inhibition compared with the maximum achievable inhibition is indicated.
The agonistic or antagonistic activity of substances can be determined on the bradykinin receptor 1 (B1R) of the species human and rat using the following assay. According to this assay, the Ca^2+ influx through the channel is quantified with the aid of a Ca^2+-sensitive dye (Fluo-4 type, Molecular Probes Europe BV, Leiden, Netherlands) using a Fluorescent Imaging Plate Reader (FLIPR, Molecular Devices, Sunnyvale, USA).
Chinese hamster ovary cells (CHO K1 cells) which have been stably transfected with the human B1R gene (hB1R cells) or with the B1R gene of the rat (rB1R cells) are used. For functional studies, the cells are plated out on black 96-well plates having a clear base (BD Biosciences, Heidelberg, Germany or Greiner, Frickenhausen, Germany) in a density of 20,000-35,000 cells/well. The cells are left overnight at 37° C. and with 5% CO2 in culture medium (hB1R cells: Nutrient Mixture Ham's F12, Gibco Invitrogen GmbH, Karlsruhe, Germany or DMEM, Sigma-Aldrich, Taufkirchen, Germany; rB1R cells: D-MEM/F12, Gibco Invitrogen GmbH, Karlsruhe, Germany), with 10 vol.% FBS (fetal bovine serum, Gibco Invitrogen GmbH, Karlsruhe, Germany or PAN Biotech GmbH, Aidenbach, Germany). On the following day, the cells are loaded for 60 minutes at 37° C. with 2.13 μM Fluo-4 (Molecular Probes Europe BV, Leiden, Netherlands) in HBSS buffer (Hank's buffered saline solution, Gibco Invitrogen GmbH, Karlsruhe, Germany) […] (Sigma-Aldrich, Taufkirchen, Germany) and 10 mM HEPES (Sigma-Aldrich, Taufkirchen, Germany). The plates are then washed twice with HBSS buffer, and HBSS buffer additionally containing 0.1% BSA (bovine serum albumin; Sigma-Aldrich, Taufkirchen, Germany), 5.6 mM glucose and 0.05% gelatin (Merck KGaA, Darmstadt, Germany) is added to the plates. After incubation for a further 20 minutes at room temperature, the plates are inserted into the FLIPR for Ca^2+ measurement. Alternatively, washing is carried out with buffer A (15 mM HEPES, 80 mM NaCl, 5 mM KCl, 1.2 mM CaCl2, 0.7 mM MgSO4, 2 g/l glucose, 2.5 mM probenecid) followed by loading with buffer A with added 2.5 μM Fluo-4 and 0.025% Pluronic F127 (Sigma-Aldrich, Taufkirchen, Germany). The cells are then washed twice with buffer A and incubated for 30 minutes at room temperature with buffer A additionally containing 0.05% BSA and 0.05% gelatin and are then inserted into the FLIPR for Ca^2+ measurement. The Ca^2+-dependent fluorescence is measured before and after the addition of substances (λex=488 nm, λem=540 nm). Quantification is carried out by measuring the highest fluorescence intensity (FC, fluorescence counts) over time.
The FLIPR protocol consists of two substance additions. Test substances (10 μM) are first pipetted onto the cells and the Ca^2+ influx is compared with the control (hB1R: Lys-Des-Arg^9-bradykinin>=50 nM; rB1R: Des-Arg^9-bradykinin 10 μM). This gives the activation in %, based on the Ca^2+ signal after addition of Lys-Des-Arg^9-bradykinin (>=50 nM) or Des-Arg^9-bradykinin (10 μM). After 10-20 minutes' incubation, Lys-Des-Arg^9-bradykinin (hB1R) or Des-Arg^9-bradykinin (rB1R) is applied in the concentration of the EC80, and the influx of Ca^2+ is likewise determined. Antagonists lead to suppression of the Ca^2+ influx. The % inhibition compared with the maximum achievable inhibition is calculated. […]

As to `COc1cc(C)c(S(=O)(=O)N2CCCCC2COc2nccc(N3CCC(O)(c4cccnc4)CC3)n2)c(C)c1` (stereo not shown) [G_CC-067, 1-[2-[[1-(4-methoxy-2,6-dimethylphenyl)sulfonyl-2-piperidinyl]methoxy]-4-pyrimidinyl]-4-(3-pyridyl)-4-piperidinol], the inhibition at 10 µM was 104%.

Take `COc1cc(C)c(S(=O)(=O)N2CCCCC2COc2nccc(N(C)CCN3CCC(c4ccccc4)(N4CCCC4)CC3)n2)c(C)c1` (stereo not shown) [G_CC-073, [2-[[1-[(4-methoxy-2,6-dimethyl-phenyl)sulfonyl]-piperidin-2-yl]-methoxy]-pyrimidin-4-yl]-methyl-[2-(4-phenyl-4-pyrrolidin-1-yl-piperidin-1-yl)-ethyl]-amine]: the inhibition at 10 µM is 101%.

Take `COc1cc(C)c(S(=O)(=O)N2CC(Oc3nccc(N(C)CCN4CCC(c5ccccc5)(N(C)C)CC4)n3)C2)c(C)c1` [G_CC-123, 2-(4-dimethylamino-4-phenyl-piperidin-1-yl)-ethyl-[2-[1-[(4-methoxy-2,6-dimethyl-phenyl)sulfonyl]-azetidin-3-yl]oxy-pyrimidin-4-yl]-methyl-amine]: the inhibition at 10 µM was 81%.

On to `CCCCC1(N(C)C)CCN(CCN(C)c2nccc(OCCN(C)S(=O)(=O)c3c(C)cc(OC)cc3C)n2)CC1` [H_CC-060, N-[2-[2-[2-(4-butyl-4-dimethylamino-piperidin-1-yl)-ethyl-methyl-amino]pyrimidin-4-yl]oxy-ethyl]-4-methoxy-N,2,6-trimethyl-benzenesulfonic acid amide], for which the inhibition at 10 µM stood at 102%.

Take `COc1cc(C)c(S(=O)(=O)N2CCC[C@H]2COc2ccnc(N(C)CCN3CCC(c4ccccc4)(N(C)C)CC3)n2)c(C)c1` [H_CC-054, 2-(4-dimethylamino-4-phenyl-piperidin-1-yl)-ethyl-[4-[[(2S)-1-[(4-methoxy-2,6-dimethyl-phenyl)sulfonyl]-pyrrolidin-2-yl]-methoxy]-pyrimidin-2-yl]-methyl-amine]: the inhibition at 10 µM was found to be 83%.

Turning to `COc1cc(C)c(S(=O)(=O)N2CCC[C@H]2COc2ccnc(N3CCCC3Cc3ccccn3)n2)c(C)c1` (stereo partly drawn) [H_CC-088, 4-[[(2S)-1-[(4-methoxy-2,6-dimethyl-phenyl)sulfonyl]-pyrrolidin-2-yl]-methoxy]-2-[2-(pyridin-2-yl-methyl)-pyrrolidin-1-yl]-pyrimidine], the inhibition at 10 µM came to 67%.

On to `COc1cc(C)c(S(=O)(=O)N2CCCCC2COc2nccc(N3CCC4(CC3)C(=O)NCN4c3ccccc3)n2)c(C)c1` (stereo not shown) [G_CC-025, 8-[2-[[1-(4-methoxy-2,6-dimethylphenyl)sulfonyl-2-piperidinyl]methoxy]-4-pyrimidinyl]-4-phenyl-2,4,8-triazaspiro[4.5]decan-1-one], for which the inhibition at 10 µM worked out at 95%.

Consider `COc1cc(C)c(S(=O)(=O)N(C)CCOc2nccc(N(C)CCCN3CCC(c4ccccc4)(N(C)C)CC3)n2)c(C)c1` [G_CC-100, N-[2-[4-[3-(4-dimethylamino-4-phenyl-piperidin-1-yl)-propyl-methyl-amino]-pyrimidin-2-yl]oxy-ethyl]-4-methoxy-N,2,6-trimethyl-benzenesulfonic acid amide], for which the inhibition at 10 µM was 89%.

In the case of `CCCCC1(N(C)C)CCN(CCN(C)c2nccc(OC3CCCN(S(=O)(=O)c4c(C)cc(OC)cc4C)C3)n2)CC1` (stereo not shown) [H_CC-053, 2-(4-butyl-4-dimethylamino-piperidin-1-yl)-ethyl-[4-[1-[(4-methoxy-2,6-dimethyl-phenyl)sulfonyl]-piperidin-3-yl]oxy-pyrimidin-2-yl]-methyl-amine], the inhibition at 10 µM turned out to be 95%.

Take `COc1cc(C)c(S(=O)(=O)N2CC(Oc3ccnc(N4CCC(N5CCN(C)CC5)CC4)n3)C2)c(C)c1` [H_CC-015, 4-[[1-(4-methoxy-2,6-dimethylphenyl)sulfonyl-3-azetidinyl]oxy]-2-[4-(4-methyl-1-piperazinyl)-1-piperidinyl]pyrimidine]: the inhibition at 10 µM amounted to 56%.
